These are literature values, as cited in article PMC12675387, “Receptor interaction profiles of 4-alkoxy-2,6-dimethoxyphenethylamines (Ψ derivatives) and related amphetamines” (Frontiers in Pharmacology, 2025).

For one series, the target named is T1, human 5-HT2A receptor (Homo sapiens, UniProt P28223).
T1 construct: expressed in transfected cells; host or cells: NIH-3T3 mouse embryonic fibroblasts
As to conditions: cited from earlier work; for h5-HT2A activation efficacy Emax ± SD: reference substances, ref Luethi et al., 2018; for type of agonism at the 5-HT2A receptor: ref Kolaczynska et al., 2019.

The target of the next series is T2, human 5-HT2B receptor (Homo sapiens, UniProt P41595).
T2 construct: expressed in transfected cells; host or cells: HEK 293 cells
Further details: method as in Luethi et al., 2018. The settings on record: reference substances; ref Luethi et al., 2018; cited from earlier work.

The target of another series is rTAAR1 (Rattus norvegicus, UniProt Q923Y9). The arrangement: expressed in transfected cells; host or cells: HEK 293 cells (membrane preparations). The settings on record: cited from earlier work.
The conditions of series [1]: cited from earlier work; for duration of effects in humans / psychoactive dose in humans: anecdotal; for fold increase in human potency from mescaline: ref Kolaczynska et al., 2022.
For another series, the target named is h5-HT2A receptor (Homo sapiens, UniProt P28223). The arrangement: expressed in transfected cells; host or cells: HEK 293 cells (membrane preparations). The settings on record: ref Kolaczynska et al., 2022; cited from earlier work.
The next series has as its target mTAAR1 (Mus musculus, UniProt Q923Y8). The arrangement: expressed in transfected cells; host or cells: HEK 293 cells (membrane preparations); method as in Luethi et al. (2019b). The settings on record: reference substance; ref Luethi et al. (2019b); read-out: mTAAR1 Ki ± SD; cited from earlier work.
A further series deals with hD2 receptor (Homo sapiens, UniProt P14416). The arrangement: expressed in transfected cells; host or cells: HEK 293 cells (membrane preparations); method as in Luethi et al. (2019b). As to conditions: reference substance; ref Luethi et al. (2019b); read-out: hD2 Ki ± SD; cited from earlier work.
A further series concerns the target hNET (Homo sapiens, UniProt P23975). The arrangement: expressed in transfected cells; host or cells: HEK 293 cells (membrane preparations); method as in Luethi et al. (2019b). The settings on record: reference substance; ref Luethi et al. (2019b); read-out: hNET Ki ± SD; cited from earlier work.
A further series addresses hDAT (Homo sapiens, UniProt Q01959). Further details: expressed in transfected cells; host or cells: HEK 293 cells (membrane preparations); method as in Luethi et al. (2019b). The settings on record: reference substance; ref Luethi et al. (2019b); read-out: hDAT Ki ± SD; cited from earlier work.
A further series has as its target hSERT (Homo sapiens, UniProt P31645). Further details: expressed in transfected cells; host or cells: HEK 293 cells (membrane preparations); method as in Luethi et al. (2019b). As to conditions: reference substance; ref Luethi et al. (2019b); read-out: hSERT Ki ± SD; cited from earlier work.
The target in another series is T3, hα2A adrenergic receptor (Homo sapiens, UniProt P08913).
T3 sequence (P08913 1-465): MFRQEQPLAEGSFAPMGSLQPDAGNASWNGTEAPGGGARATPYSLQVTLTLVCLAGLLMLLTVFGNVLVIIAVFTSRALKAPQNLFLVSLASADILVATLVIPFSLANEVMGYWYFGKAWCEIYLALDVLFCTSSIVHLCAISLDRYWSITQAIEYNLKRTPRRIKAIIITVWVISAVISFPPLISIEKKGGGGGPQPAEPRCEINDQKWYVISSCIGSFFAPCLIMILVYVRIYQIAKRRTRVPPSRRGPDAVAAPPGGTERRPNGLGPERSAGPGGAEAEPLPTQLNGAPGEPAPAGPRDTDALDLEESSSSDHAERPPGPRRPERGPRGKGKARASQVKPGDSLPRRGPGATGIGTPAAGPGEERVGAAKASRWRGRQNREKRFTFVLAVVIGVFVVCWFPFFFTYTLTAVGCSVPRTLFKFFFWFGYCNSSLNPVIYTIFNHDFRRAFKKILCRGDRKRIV
The arrangement: expressed in transfected cells; host or cells: Chinese hamster lung cells (membrane preparations); method as in Luethi et al. (2019b). As to conditions: reference substance; ref Luethi et al. (2019b); read-out: hα2A Ki ± SD; cited from earlier work.

The target in another series is T4, hα1A adrenergic receptor (Homo sapiens, UniProt P35348).
T4 sequence (P35348 1-466): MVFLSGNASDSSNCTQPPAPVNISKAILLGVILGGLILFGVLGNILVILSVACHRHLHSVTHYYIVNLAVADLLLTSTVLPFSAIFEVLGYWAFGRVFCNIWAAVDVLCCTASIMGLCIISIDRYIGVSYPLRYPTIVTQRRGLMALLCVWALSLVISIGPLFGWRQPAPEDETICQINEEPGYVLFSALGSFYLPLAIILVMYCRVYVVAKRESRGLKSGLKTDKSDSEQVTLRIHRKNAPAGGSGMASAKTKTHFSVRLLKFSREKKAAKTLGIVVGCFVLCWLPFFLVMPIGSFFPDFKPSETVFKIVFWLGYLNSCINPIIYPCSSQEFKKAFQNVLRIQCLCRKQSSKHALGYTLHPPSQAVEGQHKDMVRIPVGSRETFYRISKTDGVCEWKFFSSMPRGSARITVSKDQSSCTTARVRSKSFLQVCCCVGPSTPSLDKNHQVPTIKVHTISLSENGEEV
The arrangement: expressed in transfected cells; host or cells: Chinese hamster ovary cells (membrane preparations); method as in Luethi et al. (2019b). The settings on record: reference substance; ref Luethi et al. (2019b); read-out: hα1A Ki ± SD; cited from earlier work.

Read-outs that look alike come from different tables or passages of the source.

T1 sequence (P28223 whole entry): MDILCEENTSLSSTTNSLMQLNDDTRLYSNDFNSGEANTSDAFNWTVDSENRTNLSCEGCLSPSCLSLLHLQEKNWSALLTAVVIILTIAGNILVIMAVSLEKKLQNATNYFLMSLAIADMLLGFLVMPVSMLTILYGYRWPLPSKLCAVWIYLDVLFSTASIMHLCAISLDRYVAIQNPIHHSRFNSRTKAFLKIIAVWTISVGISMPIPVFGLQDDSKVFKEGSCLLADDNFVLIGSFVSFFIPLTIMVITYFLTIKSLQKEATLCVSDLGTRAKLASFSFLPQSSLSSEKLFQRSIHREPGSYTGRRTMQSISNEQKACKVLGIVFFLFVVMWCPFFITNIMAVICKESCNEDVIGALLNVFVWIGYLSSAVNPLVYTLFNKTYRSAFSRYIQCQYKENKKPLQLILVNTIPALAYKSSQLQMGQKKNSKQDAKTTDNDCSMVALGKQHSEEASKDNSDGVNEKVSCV
Chain of h5-HT2A receptor (P28223 whole entry): as above
Chain of rTAAR1 (Q923Y9 whole entry): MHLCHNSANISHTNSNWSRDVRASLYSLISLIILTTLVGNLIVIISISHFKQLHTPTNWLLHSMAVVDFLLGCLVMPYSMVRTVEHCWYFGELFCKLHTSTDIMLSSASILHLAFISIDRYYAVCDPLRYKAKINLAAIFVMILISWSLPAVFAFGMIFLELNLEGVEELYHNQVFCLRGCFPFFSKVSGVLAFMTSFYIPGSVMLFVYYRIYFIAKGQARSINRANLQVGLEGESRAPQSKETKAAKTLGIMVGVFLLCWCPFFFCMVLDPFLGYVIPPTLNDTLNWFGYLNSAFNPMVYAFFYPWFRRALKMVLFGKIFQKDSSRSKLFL
Chain of hD2 receptor (P14416 whole entry): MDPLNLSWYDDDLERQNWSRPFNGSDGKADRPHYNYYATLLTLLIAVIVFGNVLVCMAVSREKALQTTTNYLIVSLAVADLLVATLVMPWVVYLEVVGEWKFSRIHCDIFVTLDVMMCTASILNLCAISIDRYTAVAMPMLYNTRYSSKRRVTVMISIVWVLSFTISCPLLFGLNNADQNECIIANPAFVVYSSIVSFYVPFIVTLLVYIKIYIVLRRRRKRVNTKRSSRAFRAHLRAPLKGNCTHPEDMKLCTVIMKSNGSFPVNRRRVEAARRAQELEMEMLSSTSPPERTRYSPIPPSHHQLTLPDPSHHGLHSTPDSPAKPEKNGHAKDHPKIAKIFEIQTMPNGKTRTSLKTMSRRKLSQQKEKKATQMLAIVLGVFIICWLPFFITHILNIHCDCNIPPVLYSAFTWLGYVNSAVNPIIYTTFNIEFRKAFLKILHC
T2 sequence (P41595 whole entry): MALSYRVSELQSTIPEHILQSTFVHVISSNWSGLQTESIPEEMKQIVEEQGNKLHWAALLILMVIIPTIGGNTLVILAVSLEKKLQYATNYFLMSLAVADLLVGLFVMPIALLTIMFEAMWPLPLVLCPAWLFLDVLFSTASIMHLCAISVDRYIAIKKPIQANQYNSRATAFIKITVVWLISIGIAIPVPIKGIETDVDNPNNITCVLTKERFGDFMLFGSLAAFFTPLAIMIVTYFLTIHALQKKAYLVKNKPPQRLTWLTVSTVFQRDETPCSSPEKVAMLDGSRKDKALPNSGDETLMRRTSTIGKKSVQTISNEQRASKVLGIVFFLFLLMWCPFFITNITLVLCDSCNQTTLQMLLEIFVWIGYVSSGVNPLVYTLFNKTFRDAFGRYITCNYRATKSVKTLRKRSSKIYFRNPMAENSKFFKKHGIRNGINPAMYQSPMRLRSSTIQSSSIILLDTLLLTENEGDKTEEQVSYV
Chain of hDAT (Q01959 whole entry): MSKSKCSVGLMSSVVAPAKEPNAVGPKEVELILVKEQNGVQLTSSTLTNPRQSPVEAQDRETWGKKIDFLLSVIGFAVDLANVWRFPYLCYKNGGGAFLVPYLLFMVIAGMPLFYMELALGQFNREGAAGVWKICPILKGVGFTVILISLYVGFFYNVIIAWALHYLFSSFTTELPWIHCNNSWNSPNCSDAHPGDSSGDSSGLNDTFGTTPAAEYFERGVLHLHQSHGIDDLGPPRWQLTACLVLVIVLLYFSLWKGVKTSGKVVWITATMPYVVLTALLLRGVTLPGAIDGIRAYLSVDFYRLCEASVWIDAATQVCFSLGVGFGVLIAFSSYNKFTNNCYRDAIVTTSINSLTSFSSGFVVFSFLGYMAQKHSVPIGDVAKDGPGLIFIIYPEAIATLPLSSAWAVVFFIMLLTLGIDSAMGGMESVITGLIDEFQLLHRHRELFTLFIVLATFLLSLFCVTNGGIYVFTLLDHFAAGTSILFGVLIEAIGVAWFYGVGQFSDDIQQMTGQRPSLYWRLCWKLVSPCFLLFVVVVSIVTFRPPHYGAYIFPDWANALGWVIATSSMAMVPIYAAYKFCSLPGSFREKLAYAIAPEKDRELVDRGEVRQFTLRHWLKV
Chain of mTAAR1 (Q923Y8 whole entry): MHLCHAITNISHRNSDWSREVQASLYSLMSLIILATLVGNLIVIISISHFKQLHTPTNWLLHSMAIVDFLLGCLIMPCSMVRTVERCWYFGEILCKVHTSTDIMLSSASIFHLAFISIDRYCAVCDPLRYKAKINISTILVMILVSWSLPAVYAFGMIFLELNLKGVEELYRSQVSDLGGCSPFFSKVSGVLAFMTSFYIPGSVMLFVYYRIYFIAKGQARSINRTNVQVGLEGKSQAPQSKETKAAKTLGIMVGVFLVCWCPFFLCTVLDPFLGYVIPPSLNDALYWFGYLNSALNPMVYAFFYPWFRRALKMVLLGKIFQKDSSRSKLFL
Chain of hNET (P23975 whole entry): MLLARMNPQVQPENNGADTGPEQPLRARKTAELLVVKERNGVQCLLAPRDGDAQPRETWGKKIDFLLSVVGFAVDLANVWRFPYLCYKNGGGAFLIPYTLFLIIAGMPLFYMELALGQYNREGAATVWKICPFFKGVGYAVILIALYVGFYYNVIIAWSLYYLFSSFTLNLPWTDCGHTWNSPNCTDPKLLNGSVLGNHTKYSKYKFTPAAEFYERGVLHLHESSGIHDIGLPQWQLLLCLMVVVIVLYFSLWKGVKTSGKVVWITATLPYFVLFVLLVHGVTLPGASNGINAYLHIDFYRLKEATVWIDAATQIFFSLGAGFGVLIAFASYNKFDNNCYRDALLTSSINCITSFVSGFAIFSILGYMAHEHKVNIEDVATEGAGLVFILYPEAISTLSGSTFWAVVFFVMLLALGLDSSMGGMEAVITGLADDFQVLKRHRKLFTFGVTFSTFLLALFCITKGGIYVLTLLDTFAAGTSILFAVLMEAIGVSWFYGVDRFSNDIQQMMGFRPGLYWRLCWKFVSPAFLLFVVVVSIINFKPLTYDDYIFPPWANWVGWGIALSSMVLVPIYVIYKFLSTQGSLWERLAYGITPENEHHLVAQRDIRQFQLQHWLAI
Chain of hSERT (P31645 whole entry): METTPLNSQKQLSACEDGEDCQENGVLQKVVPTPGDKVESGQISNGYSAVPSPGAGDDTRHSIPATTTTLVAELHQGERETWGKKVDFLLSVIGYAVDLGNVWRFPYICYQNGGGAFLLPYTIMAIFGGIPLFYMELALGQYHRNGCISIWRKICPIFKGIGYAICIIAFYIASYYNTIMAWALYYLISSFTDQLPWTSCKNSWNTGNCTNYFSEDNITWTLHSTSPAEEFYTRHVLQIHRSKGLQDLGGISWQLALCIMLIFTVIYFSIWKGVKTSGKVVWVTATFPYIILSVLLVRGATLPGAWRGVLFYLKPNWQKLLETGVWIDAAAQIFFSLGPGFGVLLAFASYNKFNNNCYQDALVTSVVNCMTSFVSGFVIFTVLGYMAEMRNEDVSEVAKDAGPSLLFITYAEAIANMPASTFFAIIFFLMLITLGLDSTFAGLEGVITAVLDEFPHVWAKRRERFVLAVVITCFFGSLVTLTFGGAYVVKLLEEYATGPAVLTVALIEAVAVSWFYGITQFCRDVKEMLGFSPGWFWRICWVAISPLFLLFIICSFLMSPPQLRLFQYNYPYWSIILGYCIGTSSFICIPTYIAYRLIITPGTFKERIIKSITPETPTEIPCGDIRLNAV

Regarding `COc1cc(CCN)c(OC)cc1Br` [2C-B, 4-bromo-2,5-dimethoxyphenethylamine], the “h5-HT2A activation efficacy Emax ± SD” value on human 5-HT2A receptor is 92 ± 8%. Further, the “h5-HT2B activation efficacy Emax ± SD” value at human 5-HT2B receptor is on record as 52 ± 26%.

As usually defined, the Ki is a measure of affinity in units of concentration, obtained from inhibition or displacement. Take `CCOc1cc(OC)c(CCN)cc1OC` [2C-O-2]: the Ki at rTAAR1 (read-out: TAAR1 Ki (rat and mouse TAAR1 as worded; compared with the rat value of Ψ-2C-O-2), 2,4,5-trisubstituted derivative, ref Kolaczynska et al., 2019) is 0.67 µM.

With `COc1cc(SC(C)C)c(OC)cc1CCN` [2C-T-4], in series [1] (ref Shulgin and Shulgin, 1991), the “duration of effects in humans” value is 12 to 18 h and the “psychoactive dose in humans” value was 8 to 20 mg.

Regarding `COc1cc(CCN)cc(OC)c1OC(F)F` [DFM], the “fold increase in human potency from mescaline” value in [1] is 4 fold. For the same compound, the “fold increase in receptor affinity (Ki values) from mescaline” value on h5-HT2A receptor was 3 fold.

`COc1cc(CC(C)N)c(OC)cc1C` (stereo not shown) [DOM]: in series [1] (ref Shulgin and Shulgin, 1991), the “duration of effects in humans” value is 14 to 20 h and the “psychoactive dose in humans” value is 3 to 10 mg.

For the compound `CCN(CC)C(=O)[C@@H]1C=C2c3cccc4[nH]cc(c34)C[C@H]2N(C)C1` [LSD, lysergic acid diethylamide], the “h5-HT2A activation efficacy Emax ± SD” value on human 5-HT2A receptor is on record as 73 ± 2%.

Regarding `C=CCOc1cc(OC)c(CC(C)N)cc1OC` (stereo not shown) [MALM], at human 5-HT2A receptor, the “type of agonism at the 5-HT2A receptor” value is given as “full agonists”.

Regarding `CNC(C)Cc1ccc2c(c1)OCO2` (stereo not shown) [MDMA], the Ki was 0.25 ± 0.01 µM at rTAAR1 (reference substance, ref Luethi et al. (2019b), read-out: rTAAR1 Ki ± SD); 3.1 µM on mTAAR1; greater than 13 µM at hD2 receptor; greater than 8.7 µM at hNET; greater than 8.5 µM on hDAT; greater than 7.5 µM on hSERT. The Ki is 4.6 µM on hα2A adrenergic receptor and 6.9 µM on hα1A adrenergic receptor.

Take `C=C(C)COc1cc(OC)c(CC(C)N)cc1OC` (stereo not shown) [MMALM]: the “type of agonism at the 5-HT2A receptor” value at human 5-HT2A receptor is listed as “full agonists”.

For `COc1cc(OC)c(OC)cc1CC(C)N` (stereo not shown) [TMA-2], in series [1] (ref Shulgin and Shulgin, 1991), the “duration of effects in humans” value was 8 to 12 h and the “psychoactive dose in humans” value is 20 to 40 mg.

In the case of `COc1cc(CCN)cc(OC)c1OC(F)(F)F` [trifluoromescaline], the “fold increase in human potency from mescaline” value in [1] is given as greater than 9 fold. For the same compound, the “fold increase in receptor affinity (Ki values) from mescaline” value on h5-HT2A receptor is 33 fold.

For the compound `COc1cc(SC(C)C)cc(OC)c1CCN` [Ψ-2C-T-4, 2,6-dimethoxy-4-isopropylthiophenethylamine], the “psychoactive dose in humans” value in series [1] (ref Shulgin and Shulgin, 1991) is given as greater than 12 mg. Also, the activity in humans entry in series [1] (highest dose evaluated (12 mg), anecdotal report, ref Shulgin and Shulgin, 1991) was “inactive”.

In the case of `COc1cc(C)cc(OC)c1CC(C)N` (stereo not shown) [Ψ-DOM, 2,6-dimethoxy-4-methylamphetamine], in series [1] (ref Shulgin and Shulgin, 1991), the “duration of effects in humans” value was 6 to 8 h and the “psychoactive dose in humans” value was 15 to 25 mg.
